Earlier results on one molecule are cited in patent US20080255132A1, “Combination Therapy Comprising the Use of Et-743 and Paclitaxel for Treating Cancer” (priority 2003, published 2008).

Data set [1] concerns sarcoma and breast and ovarian carcinoma. The following applies: phase I, 1-, 3-, 24-, 72-hour i.v. infusion and 1 hour daily x5 schedules.
For data set [2], the system named is human tumor xenografts, including melanoma and ovarian and breast carcinoma. The conditions noted are these: human tumor xenografts grown in athymic mice.

In the case of `COc1cc2c(cc1O)CCN[C@]21CS[C@@H]2c3c(OC(C)=O)c(C)c4c(c3[C@H](COC1=O)N1[C@@H]2[C@H]2c3c(cc(C)c(OC)c3O)C[C@@H]([C@@H]1O)N2C)OCO4` [ET-743, ecteinascidin 743], the Responses entry in data set [1] is recorded as “Promising responses”. The Antineoplastic activity result in data set [2] was “potent antineoplastic activity”.
